Data as given in patent US6667335B2, “Imidazole derivatives” (Hoffmann-La Roche Inc., priority 2001, dated 2003).
Counter-ions that a name gives are not always drawn.

Row | SMILES | melting point
1 | Cc1cc(-n2cnc(Cn3ccnc3N)c2)ccc1Cl (as salt: hydrochloride) [Example 105, 1-[1-(4-Chloro-3-methyl-phenyl)-1H-imidazol-4-yl-methyl]-1H-imidazol-2-yl-amine-, Hydrochloride (1:2)] | 230 to 233 °C
2 | CCc1nccn1Cc1cn(-c2cccc(SC(F)(F)F)c2)cn1 (as salt: hydrochloride) [Example 143] | 234 to 236 °C
3 | CCc1nccn1Cc1cn(-c2ccc(F)c(C(C)(F)F)c2)cn1 (as salt: hydrochloride) [Example 151, 1H-Imidazole, 1-[[1-1-[3-(1,1-Difluoroethyl)-4-fluorophenyl]-1H-imidazol-4-yl]methyl]-ethyl-, Hydrochloride (1:2)] | > 200 °C (dec.)
4 | CCc1nccn1Cc1cn(-c2cccc(C(C)C)c2)cn1 (as salt: hydrochloride) [Example 153] | > 200 °C (dec.)
5 | Cc1nccn1Cc1cn(-c2ccc3ccccc3c2)cn1 (as salt: hydrochloride) [Example 155, 1H-Imidazole, 2-Methyl-1-[[1-(naphtalen-2-yl)-1H-imidazol-4-yl]methyl]-, Hydrochloride (1:2)] | 247 to 248 °C
6 | Cc1nccn1Cc1cn(-c2cccc(Cl)c2)cn1 (as salt: hydrochloride) [Example 173] | > 200 °C (dec.)
7 | CCc1nccn1Cc1cn(-c2cc(OC)cc(C(F)(F)F)c2)cn1 (as salt: hydrochloride) [Example 181] | 245 to 246 °C
8 | Cc1nccn1Cc1cn(-c2ccc3ccccc3n2)cn1 (as salt: sodium) [Example 204, 2-[4-(2-Methyl-imidazol-1-ylmethyl)-imidazol-1-yl]-quinoline] | 160 °C
9 | CCc1nccn1Cc1cn(-c2ccc3ccccc3n2)cn1 (as salt: sodium) [Example 205, 2-[4-(2-Ethyl-imidazol-1-ylmethyl)-imidazol-1-yl]-quinoline] | > 80 °C (dec.)
10 | c1ccc2nc(-n3cnc(Cn4ccnc4)c3)ccc2c1 (as salt: sodium) [Example 206, 2-(4-Imidazol-1-ylmethyl-imidazol-1-yl)-quinoline] | > 150 °C (dec.)
11 | CCc1nccn1Cc1cn(-c2cnc3ccccc3c2)cn1 (as salt: sodium) [Example 210, 3-[4-(2-Ethyl-imidazol-1-ylmethyl)-imidazol-1-yl]-quinoline] | 132 to 136 °C
12 | Cc1nccn1Cc1cn(-c2cnc3ccccc3c2)cn1 (as salt: sodium) [Example 211, 3-[4-(2-Methyl-imidazol-1-ylmethyl)-imidazol-1-yl]-quinoline] | 168 to 172 °C
13 | Cc1nccn1Cc1cn(-c2ccc(Cl)cn2)cn1 (as salt: sodium) [Example 212, 5-Chloro-2-[4-(2-methyl-imidazol-1-ylmethyl)-imidazol-1-yl]-pyridine] | 192 to 196 °C
14 | CCc1nccn1Cc1cn(-c2ccc(Cl)cn2)cn1 (as salt: sodium) [Example 213, 5-Chloro-2-[4-(2-ethyl-imidazol-1-ylmethyl)-imidazol-1-yl]-pyridine] | 182 to 185 °C
15 | Cc1nccn1Cc1cn(-c2ccc3ncccc3c2)cn1 (as salt: sodium) [Example 220, 6-[4-(2-Methyl-imidazol-1-ylmethyl)-imidazol-1-yl]-quinoline] | > 125 °C (dec.)
16 | CCc1nccn1Cc1cn(-c2ccc3ncccc3c2)cn1 (as salt: sodium) [Example 221, 6-[4-(2-Ethyl-imidazol-1-ylmethyl)-imidazol-1-yl]-quinoline] | > 79 °C (dec.)
17 | Cc1nccn1Cc1cn(-c2cccc3cccnc23)cn1 (as salt: sodium) [Example 222, 8-[4-(2-Methyl-imidazol-1-ylmethyl)-imidazol-1-yl]-quinoline] | 150 to 154 °C
18 | CCc1nccn1Cc1cn(-c2cccc3cccnc23)cn1 (as salt: sodium) [Example 223, 8-[4-(2-Ethyl-imidazol-1-ylmethyl)-imidazol-1-yl]-quinoline] | 78 to 81 °C
